The record followed here is patent US9908868B2, “Isoindolinone compounds as GPR119 modulators for the treatment of diabetes, obesity, dyslipidemia and related disorders” (SANOFI, priority 2014, dated 2018).

Structures are written as SMILES.

In this assay the target is T1, human GPR119 (Homo sapiens, UniProt Q8TDV5).
T1 construct: expressed in transfected cells
T1 sequence (Q8TDV5 1-335): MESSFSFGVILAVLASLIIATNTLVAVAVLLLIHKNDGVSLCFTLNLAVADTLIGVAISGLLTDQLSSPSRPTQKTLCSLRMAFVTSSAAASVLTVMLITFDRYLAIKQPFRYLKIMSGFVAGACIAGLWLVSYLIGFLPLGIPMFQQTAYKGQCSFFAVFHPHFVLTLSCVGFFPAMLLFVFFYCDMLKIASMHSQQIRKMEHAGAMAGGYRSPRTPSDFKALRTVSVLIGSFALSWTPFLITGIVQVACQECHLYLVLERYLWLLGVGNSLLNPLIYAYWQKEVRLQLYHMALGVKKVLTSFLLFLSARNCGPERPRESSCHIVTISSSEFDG
Briefly: Functional cellular assay measuring GPR119-mediated cAMP release (HTRF) in HEK-293 cells stably expressing recombinant human GPR119. The class given is cell-based. As to conditions: cAMP response, cell line expressing human GPR119, 30 minutes at room temperature. In short, it runs like this:
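HEK-293 cells stably expressing recombinant human GPR119, suspended at 400000 cells/mL in HBSS/20 mM HEPES/0.1% BSA/2 mM IBMX, exposed to compound for 30 minutes at room temperature. cAMP detected by HTRF (665/620 nm ratio) after 1 h with reagents in lysis buffer. EC50 taken as concentration giving 50% of maximal activation.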
Background: In TR-FRET formats the signal depends on donor and acceptor labels being close together.
What is called EC50 is the concentration at which the effect is half-maximal. Regarding `CCCC(=O)c1ccc(O[C@@H]2CCN(c3ccc4c(c3)C(=O)N(CC(=O)N(C)C)C4)C2=O)cc1` [Example 2-13, 2-[6-[(3R)-3-(4-butanoylphenoxy)-2-oxo-pyrrolidin-1-yl]-1-oxo-isoindolin-2-yl]-N,N-dimethyl-acetamide], the EC50 was determined as 75 nM. `CN(C)C(=O)CN1Cc2ccc(N3CC[C@@H](Oc4ccc(Oc5ccc(F)cc5)nc4)C3=O)cc2C1=O` [Example 2-14, 2-[6-[(3R)-3-[[6-(4-fluorophenoxy)-3-pyridyl]oxy]-2-oxo-pyrrolidin-1-yl]-1-oxo-isoindolin-2-yl]-N,N-dimethyl-acetamide]: the EC50 stood at 85 nM. Under `CN(C)C(=O)CN1Cc2ccc(N3CC[C@@H](Oc4ccc(C(=O)c5ccc(F)cc5)cc4)C3=O)cc2C1=O` [Example 2-15, 2-[6-[(3R)-3-[4-(4-fluorobenzoyl)phenoxy]-2-oxo-pyrrolidin-1-yl]-1-oxo-isoindolin-2-yl]-N,N-dimethyl-acetamide] stands 66 nM; under `CN(C)C(=O)CN1Cc2ccc(N3CC[C@@H](Oc4ccc(Oc5ccc(F)cc5)cc4)C3=O)cc2C1=O` [Example 2-16, 2-[6-[(3R)-3-[4-(4-fluorophenoxy)phenoxy]-2-oxo-pyrrolidin-1-yl]-1-oxo-isoindolin-2-yl]-N,N-dimethyl-acetamide], 47 nM.

With `CN(C)C(=O)CN1Cc2ccc(N3CC[C@@H](Oc4ccc(F)nc4)C3=O)cc2C1=O` [Example 2-17, 2-[6-[(3R)-3-[(6-fluoro-3-pyridyl)oxy]-2-oxo-pyrrolidin-1-yl]-1-oxo-isoindolin-2-yl]-N,N-dimethyl-acetamide], the EC50 is 9360 nM.

Regarding `CN(C)C(=O)CN1Cc2ccc(N3CC[C@@H](Oc4ccc(O[C@@H]5C[C@@H]6C[C@@H]6C5)nc4)C3=O)cc2C1=O` [Example 2-18, 2-[6-[(3R)-3-[[6-[[(1S,5R)-3-bicyclo[3.1.0]hexanyl]oxy]-3-pyridyl]oxy]-2-oxo-pyrrolidin-1-yl]-1-oxo-isoindolin-2-yl]-N,N-dimethyl-acetamide], the 50% effective concentration (EC50) worked out at 74 nM. On to `CN(C)C(=O)CN1Cc2ccc(N3CC[C@@H](Oc4ccc(SCC5CC5)nc4)C3=O)cc2C1=O` [Example 2-19, 2-[6-[(3R)-3-[[6-(cyclopropylmethylsulfanyl)-3-pyridyl]oxy]-2-oxo-pyrrolidin-1-yl]-1-oxo-isoindolin-2-yl]-N,N-dimethyl-acetamide], for which the concentration giving a half-maximal response (EC50) turned out to be 47 nM. Under `CN(C)C(=O)CN1Cc2ccc(N3CC[C@@H](Oc4ccc(SC5CC5)nc4)C3=O)cc2C1=O` [Example 2-20, 2-[6-[(3R)-3-[(6-cyclopropylsulfanyl-3-pyridyl)oxy]-2-oxo-pyrrolidin-1-yl]-1-oxo-isoindolin-2-yl]-N,N-dimethyl-acetamide] stands 233 nM; under `CN(C)C(=O)CN1Cc2ccc(N3CC[C@@H](Oc4ccc(C(=O)CC5CC5)cc4)C3=O)cc2C1=O` [Example 2-21, 2-[6-[(3R)-3-[4-(2-cyclopropylacetyl)phenoxy]-2-oxo-pyrrolidin-1-yl]-1-oxo-isoindolin-2-yl]-N,N-dimethyl-acetamide], 72 nM.

With `CN(C)C(=O)CN1Cc2ccc(N3CC[C@@H](Oc4ccc(SC(F)(F)F)cc4)C3=O)cc2C1=O` [Example 2-22, N,N-dimethyl-2-[1-oxo-6-[(3R)-2-oxo-3-[4-(trifluoromethylsulfanyl)phenoxy]pyrrolidin-1-yl]isoindolin-2-yl]acetamide], the half-maximal effective concentration (EC50) came to 41 nM. Next, `CN(C)C(=O)CN1Cc2ccc(N3CC[C@@H](Oc4ccc(Oc5ccccn5)cc4)C3=O)cc2C1=O` [Example 2-23, N,N-dimethyl-2-[1-oxo-6-[(3R)-2-oxo-3-[4-(2-pyridyloxy)phenoxy]pyrrolidin-1-yl]isoindolin-2-yl]acetamide]: 261 nM; `CN(C)C(=O)CN1Cc2ccc(N3CC[C@@H](Oc4ccc(N5CCOCC5)cc4)C3=O)cc2C1=O` [Example 2-24, N,N-dimethyl-2-[6-[(3R)-3-(4-morpholinophenoxy)-2-oxo-pyrrolidin-1-yl]-1-oxo-isoindolin-2-yl]acetamide]: 21000 nM.

For the molecule `CN(C)C(=O)CN1Cc2ccc(N3CC[C@@H](Oc4ccc(-n5cncn5)cc4)C3=O)cc2C1=O` [Example 2-25, N,N-dimethyl-2-[1-oxo-6-[(3R)-2-oxo-3-[4-(1,2,4-triazol-1-yl)phenoxy]pyrrolidin-1-yl]isoindolin-2-yl]acetamide], the EC50 is 12000 nM. Under `CC(=O)N1CCN(c2ccc(O[C@@H]3CCN(c4ccc5c(c4)C(=O)N(CC(=O)N(C)C)C5)C3=O)cc2)CC1` [Example 2-26, 2-[6-[(3R)-3-[4-(4-acetylpiperazin-1-yl)phenoxy]-2-oxo-pyrrolidin-1-yl]-1-oxo-isoindolin-2-yl]-N,N-dimethyl-acetamide] stands 1060 nM; under `CN(C)C(=O)CN1Cc2ccc(N3CC[C@@H](Oc4ccc(S(F)(F)(F)(F)F)cc4)C3=O)cc2C1=O` [Example 2-27, N,N-dimethyl-2-[1-oxo-6-[(3R)-2-oxo-3-[4-(pentafluoro-λ{6}-sulfanyl)phenoxy]pyrrolidin-1-yl]isoindolin-2-yl]acetamide], 160 nM. Under `CN(C)C(=O)CN1Cc2ccc(N3CC[C@@H](Oc4ccc(N5CCCC5=O)cc4)C3=O)cc2C1=O` [Example 2-28, N,N-dimethyl-2-[1-oxo-6-[(3R)-2-oxo-3-[4-(2-oxopyrrolidin-1-yl)phenoxy]pyrrolidin-1-yl]isoindolin-2-yl]acetamide] stands 1470 nM. Next, `CN(C)C(=O)CN1Cc2ccc(N3CC[C@@H](Oc4ccc(-c5nnco5)cc4)C3=O)cc2C1=O` [Example 2-29, N,N-dimethyl-2-[6-[(3R)-3-[4-(1,3,4-oxadiazol-2-yl)phenoxy]-2-oxo-pyrrolidin-1-yl]-1-oxo-isoindolin-2-yl]acetamide]: 3390 nM.

For `CN(C)C(=O)CN1Cc2ccc(N3CC[C@@H](Oc4ccc(OCC(F)(F)F)cc4)C3=O)cc2C1=O` [Example 2-30, N,N-dimethyl-2-[1-oxo-6-[(3R)-2-oxo-3-[4-(2,2,2-trifluoroethoxy)phenoxy]pyrrolidin-1-yl]isoindolin-2-yl]acetamide], the EC50 came out at 82 nM. In the case of `Cc1csc(-c2ccc(O[C@@H]3CCN(c4ccc5c(c4)C(=O)N(CC(=O)N(C)C)C5)C3=O)cc2)n1` [Example 2-31, N,N-dimethyl-2-[6-[(3R)-3-[4-(4-methylthiazol-2-yl)phenoxy]-2-oxo-pyrrolidin-1-yl]-1-oxo-isoindolin-2-yl]acetamide], the EC50 came to 343 nM. Next, `Cc1nc(-c2ccc(O[C@@H]3CCN(c4ccc5c(c4)C(=O)N(CC(=O)N(C)C)C5)C3=O)cc2)no1` [Example 2-32, N,N-dimethyl-2-[6-[(3R)-3-[4-(5-methyl-1,2,4-oxadiazol-3-yl)phenoxy]-2-oxo-pyrrolidin-1-yl]-1-oxo-isoindolin-2-yl]acetamide]: 268 nM; `CN(C)C(=O)CN1Cc2ccc(N3CC[C@@H](Oc4ccc(NC5=NC(=O)CS5)cc4)C3=O)cc2C1=O` [Example 2-33, N,N-dimethyl-2-[1-oxo-6-[(3R)-2-oxo-3-[4-[(4-oxothiazol-2-yl)amino]phenoxy]pyrrolidin-1-yl]isoindolin-2-yl]acetamide]: 2210 nM; `CC(C)c1noc(-c2ccc(O[C@@H]3CCN(c4ccc5c(c4)C(=O)N(CC(=O)N(C)C)C5)C3=O)cc2)n1` [Example 2-34, 2-[6-[(3R)-3-[4-(3-isopropyl-1,2,4-oxadiazol-5-yl)phenoxy]-2-oxo-pyrrolidin-1-yl]-1-oxo-isoindolin-2-yl]-N,N-dimethyl-acetamide]: 84 nM. Take `CN(C)C(=O)CN1Cc2ccc(N3CC[C@@H](Oc4ccc(C(=O)N5CCCC5)cc4)C3=O)cc2C1=O` [Example 2-35, N,N-dimethyl-2-[1-oxo-6-[(3R)-2-oxo-3-[4-(pyrrolidine-1-carbonyl)phenoxy]pyrrolidin-1-yl]isoindolin-2-yl]acetamide]: the EC50 was 8660 nM. Next, `CN(C)C(=O)CN1Cc2ccc(N3CC[C@@H](Oc4ccc(-n5cnnc5)cc4)C3=O)cc2C1=O` [Example 2-36, N,N-dimethyl-2-[1-oxo-6-[(3R)-2-oxo-3-[4-(1,2,4-triazol-4-yl)phenoxy]pyrrolidin-1-yl]isoindolin-2-yl]acetamide]: 32800 nM; `CN(C)C(=O)CN1Cc2ccc(N3CC[C@@H](Oc4ccc(-c5cnco5)cc4)C3=O)cc2C1=O` [Example 2-37, N,N-dimethyl-2-[6-[(3R)-3-(4-oxazol-5-ylphenoxy)-2-oxo-pyrrolidin-1-yl]-1-oxo-isoindolin-2-yl]acetamide]: 862 nM. As to `CN(C)C(=O)CN1Cc2ccc(N3CC[C@@H](Oc4ccc(-c5cnccn5)cc4)C3=O)cc2C1=O` [Example 2-38, N,N-dimethyl-2-[1-oxo-6-[(3R)-2-oxo-3-(4-pyrazin-2-ylphenoxy)pyrrolidin-1-yl]isoindolin-2-yl]acetamide], the half-maximal effective concentration (EC50) was 808 nM. Under `CCn1nnnc1-c1ccc(O[C@@H]2CCN(c3ccc4c(c3)C(=O)N(CC(=O)N(C)C)C4)C2=O)cc1` [Example 2-39, 2-[6-[(3R)-3-[4-(1-ethyltetrazol-5-yl)phenoxy]-2-oxo-pyrrolidin-1-yl]-1-oxo-isoindolin-2-yl]-N,N-dimethyl-acetamide] stands 27000 nM; under `CN(C)C(=O)CN1Cc2ccc(N3CC[C@@H](Oc4ccc(-c5csnn5)cc4)C3=O)cc2C1=O` [Example 2-40, N,N-dimethyl-2-[1-oxo-6-[(3R)-2-oxo-3-[4-(thiadiazol-4-yl)phenoxy]pyrrolidin-1-yl]isoindolin-2-yl]acetamide], 337 nM.
